In patent US9301521B2, “Bee attractants” (priority 2013, dated 2016):

Columns and labels:
O. lignaria = experiment: Field tests with fatty acids on filter papers, apple orchard in Utah; assay type: in vivo, Osmia lignaria; details: single fatty acid set; for females found in artificial nest sites, range: 9 sample dates; for Cells/replicate / Nests/replicate / Females/date: 400 CE per nest site; for Cells/replicate / Nests/replicate: five replicates; for Females/date: mean ± SE for 9 sample dates
From the text: To better understand whether application of one, or some mixture of, free fatty acids to nesting material or artificial nest sites is attractive to O. lignaria, two experimental sets are generated so that one set tests for differences in bee response to each single fatty acid and the other set tests for differences in bee response to mixtures of the fatty acids described above in Table 11. Fatty acids are applied to separate filter papers so that each filter paper contains 200 CE. As a negative control, the volume of ethyl alcohol used for the other samples is applied to its own filter paper. For the experiment in an apple orchard in Utah, each small, corrugated plastic box artificial nest site (20×23×20 cm), with two bundles of 19 paper tubes each, is hung in an apple tree; nest sites are separated by one tree between them within each replicate group. To each nest site, two of the 200 CE impregnated filter papers are applied; thus, a total of 400 CE of the stimulus is present within each nest site. Each filter paper (containing either a single fatty acid, one mixture of fatty acids, or the negative control) is attached using cable ties to the front of one tube in each of the two bundles in each artificial nest site. The filter papers are replaced weekly. Each artificial nest site contains only one type of treatment. For the single fatty acid comparison, artificial nest sites are placed in the orchard in five replicates of the three treatments plus a control (i.e., four nest sites per replicate), with each artificial nest site opening facing southeast. For the mixtures of fatty acids comparison, artificial nest sites are placed in the orchard in five replicates of the four treatments plus a control (i.e., five nest sites per replicate), with each artificial nest site opening facing southeast. Both experimental sets are located in the same orchard where they are intermittently placed but separated by at least two rows of apple trees. A total of 540 female and 1000 male bees are released throughout the orchard at least one tree row from the artificial nest sites using several release box sites (with equal numbers of bees per box). Artificial nest sites are checked daily for the presence of male and female bees and for tubes with completed nests. Tubes with completed nests are removed and are replaced with fresh ones. Later, all nests containing any bee cells are examined with x-radiography to determine number of cells in each nest.

[1] = tested on: O. bucephala female antennae; experiment: EAG response to specific fatty acids and mixtures; design: species or system Osmia bucephala; details: O. bucephala (n = 8); 100 CE
From the text: (§1) The objective of this example is to compare antennal responses of three Osmia species (O. lignaria, O. bucephala, and O. cornifrons obtained from near a Pennsylvania apple orchard) to each of three fatty acids, each combined mixture of two acids, and the combined mixture of all acids (see Table 11). Female and male bees are maintained in laboratory cages and fed honey-water ad libitum for four days. On the fourth day, one antenna at a time is removed from each chilled, live female test bee with scissors and placed on the electrode probe of a Syntech EAG (Kirchzarten, Germany). The electrode with the antenna is inserted into a glass tube into which flows humidified air, and into which a stimulus (air, a fatty acid, or fatty acid mixture) is applied.
(§2) Each of the above indicated fatty acids, purchased from Sigma-Aldrich (St. Louis, Mo.), are dissolved in ethyl alcohol at a concentration similar to that used for the Synthetic Blend. Each fatty acid and each mixture (Equistar Chemicals, LP, Houston, Tex.) is evenly applied to a circular filter paper in Petri dish (9 cm) at dose of 100 CE. A 1.5 cm^2 piece of filter paper is cut from the center of the filter paper circle. The piece of filter paper is placed into the disposable glass pipette (4.6 cm) that is used for delivery by applying a controlled puff of air over the filter paper.
(§3) Each of the single or mixtures of fatty acids described above (see Table 11) and a control (air) are tested on an antenna: Air or filter paper pieces with each fatty acid or fatty acids mixture are delivered in succession every minute until an antenna is exposed to each cue and air three times (total test period=30 minutes). The antennal responses are recorded, and their amplitudes are measured using Syntech EAG software (Kirchzarten, Germany). The antennal responses of ≦12 female bees per species are recorded. […]

[2] = tested on: O. lignaria female antennae; experiment: EAG response to specific fatty acids and mixtures; design: species or system Osmia lignaria; details: O. lignaria (n = 12); 100 CE
From the text: as §1, §2, §3

[3] = tested on: O. cornifrons female antennae; experiment: EAG response to specific fatty acids and mixtures; design: species or system Osmia cornifrons; details: O. cornifrons (n = 12); 100 CE
From the text: as §1, §2, §3

[4] = Evaporation rates of attractants (weight loss of vials); assay type: physicochemical
Description: The objective of this experiment is to quantify the loss of the fatty acids and Synthetic Blend via evaporation. Synthetic Blend is prepared as per Example 3. Decanoic acid, dodecanoic acid, and tetradecanoic acid are purchased as per Example 4. Synthetic Blend is a liquid at room temperature. Vials containing between 0.235 and 0.304 grams of either Synthetic Blend or each individual fatty acid are placed in a 40° C. incubator and a ˜30° C. incubator room with a fan and are weighed after 1, 4, 10, 24, 31, 39 and 44 days. Three vials are monitored for each attractant, and the average weight loss is calculated. All samples lose weight faster at 30° C. with airflow compared to 40° C. without airflow. After […] at 30° C. with airflow, Synthetic Blend loses only 0.57% of its weight (see FIG. 2). This loss of mass is caused mostly by evaporation of decanoic acid which comprises approximately 73% of Synthetic Blend. After 24 days, Synthetic Blend loses 9.8% of its mass and after 44 days, 17.2% of its mass. A linear relationship is found between weight loss and days for both environments (see FIG. 3).

| SMILES | females found in artificial nest sites, range (O. lignaria) | Cells/replicate (O. lignaria) | Nests/replicate (O. lignaria) | Females/date (O. lignaria) | Mean Amplitude ± SE [1] | Mean Amplitude ± SE [2] | Mean Amplitude ± SE [3] | relative evaporation of blend components [4] |
| --- | --- | --- | --- | --- | --- | --- | --- | --- |
| CCCCCCCCCCCCCC(=O)O [Tetradecanoic acid, tetradecanoic acid] | 0-1 | 1.6 ± 1.6 | 0.2 ± 0.2 | 0.4 ± 0.17 | −0.92 ± 0.07 | −0.41 ± 0.03 | −0.43 ± 0.04 | – |
| CCCCCCCCCCCC(=O)O [Dodecanoic acid, dodecanoic acid] | – | 8.8 ± 7.40 | 1.4 ± 1.17 | 3.4 ± 0.67 | −0.83 ± 0.06 | −0.41 ± 0.03 | −0.43 ± 0.04 | – |
| CCCCCCCCCC(=O)O [Decanoic acid, decanoic acid] | 4-15 | 13.4 ± 6.13 | 2.6 ± 1.17 | 10.2 ± 1.14 | −1.31 ± 0.10 | −0.98 ± 0.06 | −0.89 ± 0.06 | evaporated much faster than tetradecanoic acid and dodecanoic acid |
